Assay results: US20220088016A1, “CANCER TREATMENT USING MULTI-TARGETED KINASE INHIBITOR IN COMBINATION OF PROTEIN KINASE BIOMARKERS” (ZHEJIANG CROWNMAB BIOTECH CO. LTD., priority 2019, published 2022)

Columns and labels:
Assay in all cases: Kinase IC50 (Eurofins KinaseProfiler)
Assay type in all cases: biochemical
Aurora-C (h) = molecular target: T1, Aurora-C (h) (Homo sapiens, UniProt Q9UQB9)
T1 construct: purchased Eurofins
Description: (§1) CBT-102 were tested against each of the selected kinases using the Eurofins standard KinaseProfder assays and following the relevant standard operating procedures. The required volume of the 50× stock of test compound (CBT-102) was added to the assay well, before a reaction mix containing the enzyme and substrate was added. The reaction was initiated by the addition of ATP at the selected concentration. There was no pre-incubation of the compound with the enzyme/substrate mix prior to ATP addition.
(§2) Data are handled using a custom-built in-house analysis software. Results are expressed as kinase activity remaining, as a percentage of the DMSO control. This is calculated using the following formula: […]
(§3) For IC50 determinations, data are analyzed using XLFit version 5.3 (ID Business Solutions).

B-Raf (h) = molecular target: T2, B-Raf (h) (Homo sapiens, UniProt P15056)
T2 construct: purchased Eurofins
T2 sequence (P15056 whole entry): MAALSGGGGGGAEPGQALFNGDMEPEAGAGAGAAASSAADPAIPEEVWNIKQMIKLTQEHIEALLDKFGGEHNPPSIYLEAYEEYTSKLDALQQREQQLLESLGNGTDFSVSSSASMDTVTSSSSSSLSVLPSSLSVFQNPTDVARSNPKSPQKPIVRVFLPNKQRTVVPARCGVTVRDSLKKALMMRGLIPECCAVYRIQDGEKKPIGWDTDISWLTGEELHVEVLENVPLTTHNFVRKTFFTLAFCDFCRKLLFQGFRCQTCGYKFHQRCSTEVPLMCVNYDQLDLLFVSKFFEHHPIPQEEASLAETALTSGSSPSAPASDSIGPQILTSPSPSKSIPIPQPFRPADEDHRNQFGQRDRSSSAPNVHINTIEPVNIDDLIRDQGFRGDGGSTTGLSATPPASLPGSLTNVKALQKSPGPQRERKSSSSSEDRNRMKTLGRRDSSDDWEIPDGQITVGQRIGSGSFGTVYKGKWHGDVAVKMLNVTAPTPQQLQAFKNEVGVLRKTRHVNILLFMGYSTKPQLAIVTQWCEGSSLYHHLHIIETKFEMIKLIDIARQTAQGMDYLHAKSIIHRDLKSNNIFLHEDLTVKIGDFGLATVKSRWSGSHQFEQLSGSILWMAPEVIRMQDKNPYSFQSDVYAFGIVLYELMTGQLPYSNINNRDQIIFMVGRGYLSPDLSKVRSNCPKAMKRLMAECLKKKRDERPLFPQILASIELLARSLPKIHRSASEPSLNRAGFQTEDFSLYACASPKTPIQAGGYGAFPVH
Description: as §1, §2, §3

CHK1 (h) = molecular target: T3, CHK1 (h) (Homo sapiens, UniProt O14757)
T3 construct: purchased Eurofins (KinaseProfiler service)
Description: as §1, §2, §3

DDR1 (h) = molecular target: T4, DDR1 (h) (Homo sapiens, UniProt Q08345)
T4 construct: purchased Eurofins (KinaseProfiler service)
Description: as §1, §2, §3

DDR2 (h) = molecular target: T5, DDR2 (h) (Homo sapiens, UniProt Q16832)
T5 construct: purchased Eurofins (KinaseProfiler service)
Description: as §1, §2, §3

EGFR (h) = molecular target: T6, EGFR (h) (Homo sapiens, UniProt P00533)
T6 construct: purchased Eurofins (KinaseProfiler service)
Description: as §1, §2, §3

EphB4 (h) = molecular target: T7, EphB4 (h) (Homo sapiens, UniProt P54760)
T7 construct: purchased Eurofins (KinaseProfiler service)
T7 sequence (P54760 16-987): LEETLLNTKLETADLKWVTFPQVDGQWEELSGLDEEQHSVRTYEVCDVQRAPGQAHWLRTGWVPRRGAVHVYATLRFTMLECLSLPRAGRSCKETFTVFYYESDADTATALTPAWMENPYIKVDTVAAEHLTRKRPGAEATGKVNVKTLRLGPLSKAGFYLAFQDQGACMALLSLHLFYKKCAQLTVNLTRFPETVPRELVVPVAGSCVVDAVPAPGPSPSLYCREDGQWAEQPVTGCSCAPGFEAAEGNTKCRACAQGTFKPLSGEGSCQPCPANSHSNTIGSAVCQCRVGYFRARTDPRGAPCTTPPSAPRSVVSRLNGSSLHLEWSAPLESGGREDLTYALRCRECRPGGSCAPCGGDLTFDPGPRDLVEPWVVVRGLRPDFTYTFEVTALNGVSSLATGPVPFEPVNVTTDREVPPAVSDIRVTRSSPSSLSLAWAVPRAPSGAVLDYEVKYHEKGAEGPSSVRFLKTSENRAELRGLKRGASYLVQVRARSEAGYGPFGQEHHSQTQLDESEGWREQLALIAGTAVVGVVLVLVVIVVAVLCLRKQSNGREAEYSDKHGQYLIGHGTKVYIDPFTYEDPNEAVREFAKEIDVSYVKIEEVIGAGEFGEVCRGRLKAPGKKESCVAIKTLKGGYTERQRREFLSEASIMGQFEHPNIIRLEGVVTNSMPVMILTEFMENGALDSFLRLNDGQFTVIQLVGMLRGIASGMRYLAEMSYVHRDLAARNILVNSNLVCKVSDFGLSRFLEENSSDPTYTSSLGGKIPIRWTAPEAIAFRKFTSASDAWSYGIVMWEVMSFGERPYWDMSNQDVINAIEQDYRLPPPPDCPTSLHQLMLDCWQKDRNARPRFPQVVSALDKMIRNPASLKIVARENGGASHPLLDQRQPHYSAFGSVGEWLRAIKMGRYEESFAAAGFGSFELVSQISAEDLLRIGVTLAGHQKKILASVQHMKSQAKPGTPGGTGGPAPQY
Description: as §1, §2, §3

ErbB4 (h) = molecular target: T8, ErbB4 (h) (Homo sapiens, UniProt Q15303)
T8 construct: purchased Eurofins (KinaseProfiler service)
Description: as §1, §2, §3

FGFR3 (h) = molecular target: T9, FGFR3 (h) (Homo sapiens, UniProt P22607)
T9 construct: purchased Eurofins (KinaseProfiler service)
Description: as §1, §2, §3

FGFR4 (h) = molecular target: T10, FGFR4 (h) (Homo sapiens, UniProt P22455)
T10 construct: purchased Eurofins (KinaseProfiler service)
Description: as §1, §2, §3

Fgr (h) = molecular target: T11, Fgr (h) (Homo sapiens, UniProt P09769)
T11 construct: purchased Eurofins (KinaseProfiler service)
Description: as §1, §2, §3

Flt1 (h) = molecular target: T12, Flt1 (h) (Homo sapiens, UniProt P17948)
T12 construct: purchased Eurofins (KinaseProfiler service)
Description: as §1, §2, §3

Flt4 (h) = molecular target: T13, Flt4 (h) (Homo sapiens, UniProt P35916)
T13 construct: purchased Eurofins (KinaseProfiler service)
Description: as §1, §2, §3

Fms (h) (CSF1R) = molecular target: T14, Fms (h) (CSF1R) (Homo sapiens, UniProt P07333)
T14 construct: purchased Eurofins (KinaseProfiler service)
Description: as §1, §2, §3

IR (h) = molecular target: T15, IR (h) (Homo sapiens, UniProt P06213)
T15 construct: purchased Eurofins (KinaseProfiler service)
T15 sequence (P06213 28-1382): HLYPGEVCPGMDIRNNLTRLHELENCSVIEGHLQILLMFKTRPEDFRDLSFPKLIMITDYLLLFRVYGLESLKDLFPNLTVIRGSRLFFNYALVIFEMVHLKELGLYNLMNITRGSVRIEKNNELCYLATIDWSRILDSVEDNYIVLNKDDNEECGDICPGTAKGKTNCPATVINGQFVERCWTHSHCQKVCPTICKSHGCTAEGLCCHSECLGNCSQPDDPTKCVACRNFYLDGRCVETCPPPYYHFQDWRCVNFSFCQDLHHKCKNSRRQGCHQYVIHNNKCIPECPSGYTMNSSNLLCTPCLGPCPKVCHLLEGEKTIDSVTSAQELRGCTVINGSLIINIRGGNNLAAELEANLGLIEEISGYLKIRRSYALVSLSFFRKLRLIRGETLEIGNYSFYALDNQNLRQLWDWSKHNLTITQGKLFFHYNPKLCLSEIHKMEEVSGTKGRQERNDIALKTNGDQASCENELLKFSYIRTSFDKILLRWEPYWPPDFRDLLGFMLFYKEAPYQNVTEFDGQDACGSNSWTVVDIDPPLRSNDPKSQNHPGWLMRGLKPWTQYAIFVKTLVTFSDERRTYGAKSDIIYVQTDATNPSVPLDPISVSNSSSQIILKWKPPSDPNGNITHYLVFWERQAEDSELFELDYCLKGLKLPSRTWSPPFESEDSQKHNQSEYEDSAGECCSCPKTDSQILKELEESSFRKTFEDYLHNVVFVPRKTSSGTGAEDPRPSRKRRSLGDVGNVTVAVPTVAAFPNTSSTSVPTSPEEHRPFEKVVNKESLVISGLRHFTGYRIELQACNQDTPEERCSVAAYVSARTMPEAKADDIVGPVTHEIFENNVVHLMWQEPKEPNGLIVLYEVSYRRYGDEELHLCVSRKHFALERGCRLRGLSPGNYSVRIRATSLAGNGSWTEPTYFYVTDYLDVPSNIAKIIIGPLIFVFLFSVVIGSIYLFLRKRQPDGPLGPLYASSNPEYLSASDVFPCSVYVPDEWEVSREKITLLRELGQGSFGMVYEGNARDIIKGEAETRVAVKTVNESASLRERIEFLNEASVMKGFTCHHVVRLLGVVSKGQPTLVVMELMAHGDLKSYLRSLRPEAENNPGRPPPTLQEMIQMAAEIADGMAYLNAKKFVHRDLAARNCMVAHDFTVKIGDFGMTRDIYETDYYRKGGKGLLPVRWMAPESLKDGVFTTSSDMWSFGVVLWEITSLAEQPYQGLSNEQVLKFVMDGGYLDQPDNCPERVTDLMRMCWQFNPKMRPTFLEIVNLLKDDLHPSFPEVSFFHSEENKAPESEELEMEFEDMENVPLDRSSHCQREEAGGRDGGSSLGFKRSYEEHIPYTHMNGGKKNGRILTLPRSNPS
Description: as §1, §2, §3

LOK (h) = molecular target: T16, LOK (h) (Homo sapiens, UniProt O94804)
T16 construct: purchased Eurofins (KinaseProfiler service)
Description: as §1, §2, §3

Lck (h) = molecular target: T17, Lck (h) (Homo sapiens, UniProt P06239)
T17 construct: purchased Eurofins (KinaseProfiler service)
T17 sequence (P06239 whole entry): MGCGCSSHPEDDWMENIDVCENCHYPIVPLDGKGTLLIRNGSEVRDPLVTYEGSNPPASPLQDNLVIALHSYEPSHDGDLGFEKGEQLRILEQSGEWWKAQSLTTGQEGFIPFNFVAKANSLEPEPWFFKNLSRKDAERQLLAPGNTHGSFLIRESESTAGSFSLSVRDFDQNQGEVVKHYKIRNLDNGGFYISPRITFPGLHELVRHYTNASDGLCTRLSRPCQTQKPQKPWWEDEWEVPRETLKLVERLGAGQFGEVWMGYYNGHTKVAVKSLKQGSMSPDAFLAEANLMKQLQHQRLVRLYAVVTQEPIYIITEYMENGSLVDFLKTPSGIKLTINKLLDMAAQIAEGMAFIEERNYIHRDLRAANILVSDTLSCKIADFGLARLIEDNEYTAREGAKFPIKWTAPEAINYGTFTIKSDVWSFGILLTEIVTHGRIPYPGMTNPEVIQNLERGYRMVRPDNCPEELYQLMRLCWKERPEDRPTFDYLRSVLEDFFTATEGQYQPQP
Description: as §1, §2, §3

Met (h) = molecular target: T18, Met (h) (Homo sapiens, UniProt P08581)
T18 construct: purchased Eurofins (KinaseProfiler service)
Description: as §1, §2, §3

NEK2 (h) = molecular target: T19, NEK2 (h) (Homo sapiens, UniProt P51955)
T19 construct: purchased Eurofins (KinaseProfiler service)
T19 sequence (P51955 whole entry): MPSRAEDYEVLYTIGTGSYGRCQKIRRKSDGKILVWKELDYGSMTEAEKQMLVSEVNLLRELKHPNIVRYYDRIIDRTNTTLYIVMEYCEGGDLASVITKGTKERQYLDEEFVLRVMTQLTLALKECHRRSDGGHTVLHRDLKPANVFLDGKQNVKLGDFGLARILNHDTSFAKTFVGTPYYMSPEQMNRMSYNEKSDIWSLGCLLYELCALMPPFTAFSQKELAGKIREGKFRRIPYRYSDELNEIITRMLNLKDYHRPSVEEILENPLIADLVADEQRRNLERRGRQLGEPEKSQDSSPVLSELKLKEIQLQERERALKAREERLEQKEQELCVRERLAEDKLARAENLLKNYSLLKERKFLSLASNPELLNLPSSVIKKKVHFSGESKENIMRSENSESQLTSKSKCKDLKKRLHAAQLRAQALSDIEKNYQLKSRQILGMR
Description: as §1, §2, §3

PDGFRβ (h) = molecular target: T20, PDGFRβ (h) (Homo sapiens, UniProt P09619)
T20 construct: purchased Eurofins (KinaseProfiler service)
Description: as §1, §2, §3

PKA (h) = molecular target: T21, PKA (h) (Homo sapiens, UniProt P17612)
T21 construct: purchased Eurofins
Description: as §1, §2, §3

PKBα (h) = molecular target: T22, PKBα (h) (Homo sapiens, UniProt P31749)
T22 construct: purchased Eurofins
Description: as §1, §2, §3

Plk1 (h) = molecular target: T23, Plk1 (h) (Homo sapiens, UniProt P53350)
T23 construct: purchased Eurofins
T23 sequence (P53350 whole entry): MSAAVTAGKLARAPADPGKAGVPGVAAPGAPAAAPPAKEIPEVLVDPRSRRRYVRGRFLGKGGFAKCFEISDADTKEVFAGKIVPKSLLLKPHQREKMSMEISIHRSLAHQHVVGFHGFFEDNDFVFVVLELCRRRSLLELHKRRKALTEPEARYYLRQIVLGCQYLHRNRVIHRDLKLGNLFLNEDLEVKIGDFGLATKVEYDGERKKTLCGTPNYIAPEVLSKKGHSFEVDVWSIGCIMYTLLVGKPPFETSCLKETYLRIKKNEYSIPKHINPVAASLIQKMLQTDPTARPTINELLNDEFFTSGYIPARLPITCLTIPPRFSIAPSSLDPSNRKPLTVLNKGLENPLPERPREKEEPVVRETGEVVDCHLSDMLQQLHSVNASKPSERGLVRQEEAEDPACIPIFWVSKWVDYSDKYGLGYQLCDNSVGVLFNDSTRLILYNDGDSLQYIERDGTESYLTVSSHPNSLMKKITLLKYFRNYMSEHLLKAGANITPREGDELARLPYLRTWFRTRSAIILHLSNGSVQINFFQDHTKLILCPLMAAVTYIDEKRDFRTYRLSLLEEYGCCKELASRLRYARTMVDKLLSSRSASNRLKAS
Description: as §1, §2, §3

RIPK2 (h) = molecular target: T24, RIPK2 (h) (Homo sapiens, UniProt O43353)
T24 construct: purchased Eurofins
Description: as §1, §2, §3

Ret (h) = molecular target: T25, Ret (h) (Homo sapiens, UniProt P07949)
T25 construct: purchased Eurofins
Description: as §1, §2, §3

SAPK2a (h) = molecular target: T26, SAPK2a (h) (Homo sapiens, UniProt Q16539)
T26 construct: purchased Eurofins
Description: as §1, §2, §3

SGK3 (h) = molecular target: T27, SGK3 (h) (Homo sapiens, UniProt Q96BR1)
T27 construct: purchased Eurofins
Description: as §1, §2, §3

SLK (h) = molecular target: T28, SLK (h) (Homo sapiens, UniProt Q9H2G2)
T28 construct: purchased Eurofins
Description: as §1, §2, §3

Syk (h) = molecular target: T29, Syk (h) (Homo sapiens, UniProt P43405)
T29 construct: purchased Eurofins
Description: as §1, §2, §3

TNIK (h) = molecular target: T30, TNIK (h) (Homo sapiens, UniProt Q9UKE5)
T30 construct: purchased Eurofins
Description: as §1, §2, §3

ZAK (h) = molecular target: T31, ZAK (h) (Homo sapiens, UniProt Q9NYL2)
T31 construct: purchased Eurofins
Description: as §1, §2, §3

c-RAF (h) = molecular target: T32, c-RAF (h) (Homo sapiens, UniProt P04049)
T32 construct: purchased Eurofins (KinaseProfiler service)
Description: as §1, §2, §3

cKit (V560G) (h) = molecular target: T33, cKit (V560G) (h) (Homo sapiens, UniProt P10721, V560G)
T33 construct: purchased Eurofins (KinaseProfiler service)
Description: as §1, §2, §3

cKit (V654A) (h) = molecular target: T34, cKit (V654A) (h) (Homo sapiens, UniProt P10721, V654A)
T34 construct: purchased Eurofins (KinaseProfiler service)
Description: as §1, §2, §3

cSRC (h) = molecular target: T35, cSRC (h) (Homo sapiens, UniProt P12931)
T35 construct: purchased Eurofins (KinaseProfiler service)
Description: as §1, §2, §3

T1 sequence (Q9UQB9 whole entry): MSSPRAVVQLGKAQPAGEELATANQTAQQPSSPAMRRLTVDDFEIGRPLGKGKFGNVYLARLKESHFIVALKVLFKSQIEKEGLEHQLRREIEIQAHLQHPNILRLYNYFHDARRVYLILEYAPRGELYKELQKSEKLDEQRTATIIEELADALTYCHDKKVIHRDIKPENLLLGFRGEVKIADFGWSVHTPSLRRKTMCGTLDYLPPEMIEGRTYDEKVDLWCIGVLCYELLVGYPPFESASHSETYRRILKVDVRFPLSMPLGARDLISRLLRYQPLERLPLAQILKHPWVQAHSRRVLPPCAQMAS

Cc1cc(Oc2cc(NC(=O)C3CC3)ncn2)ccc1NC(=O)Nc1ccc(Cl)c(C(F)(F)F)c1 [CBT-102]
IC50 (Aurora-C (h)): > 10000 nM | IC50 (B-Raf (h)): 348 nM | IC50 (CHK1 (h)): > 10000 nM | IC50 (DDR1 (h)): 34 nM | IC50 (DDR2 (h)): 263 nM | IC50 (EGFR (h)): > 10000 nM | IC50 (EphB4 (h)): 486 nM | IC50 (ErbB4 (h)): > 10000 nM | IC50 (FGFR3 (h)): > 10000 nM | IC50 (FGFR4 (h)): > 10000 nM | IC50 (Fgr (h)): 1430 nM | IC50 (Flt1 (h)): 21 nM | IC50 (Flt4 (h)): 8 nM | IC50 (Fms (h) (CSF1R)): 43 nM | IC50 (IR (h)): > 10000 nM | IC50 (LOK (h)): 1090 nM | IC50 (Lck (h)): 1340 nM | IC50 (Met (h)): 2860 nM | IC50 (NEK2 (h)): > 10000 nM | IC50 (PDGFRβ (h)): 1320 nM | IC50 (PKA (h)): > 10000 nM | IC50 (PKBα (h)): > 10000 nM | IC50 (Plk1 (h)): > 10000 nM | IC50 (RIPK2 (h)): 107 nM | IC50 (Ret (h)): 43 nM | IC50 (SAPK2a (h)): 180 nM | IC50 (SGK3 (h)): > 10000 nM | IC50 (SLK (h)): 879 nM | IC50 (Syk (h)): > 10000 nM | IC50 (TNIK (h)): 113 nM | IC50 (ZAK (h)): 26 nM | IC50 (c-RAF (h)): 31 nM | IC50 (cKit (V560G) (h)): 38 nM | IC50 (cKit (V654A) (h)): 278 nM | IC50 (cSRC (h)): 2500 nM
